Results from the supplement of paper PMC13380429.

How the values were obtained:
Settings in all cases: 72 h
Caco-2 [1] = assay: cell viability relative to DMSO; higher = less toxic
Calu-3 [2] = assay: as above
HepG2 [3] = assay: as above
U2OS [4] = assay: as above
Vero E6 [5] = assay: as above
Caco-2 [6] = assay: relative viability EC50 (midpoint between 100% and the lowest measured viability); higher = less toxic
Calu-3 [7] = assay: as above
HepG2 [8] = assay: as above
U2OS [9] = assay: as above
Vero E6 [10] = assay: as above
Caco-2 [11] = assay: drug sensitivity score (DSS) for viability; higher = more toxic; extreme values may be limits of the assay
Calu-3 [12] = assay: as above
HepG2 [13] = assay: as above
U2OS [14] = assay: as above
Vero E6 [15] = assay: as above

SMILES | cell viability (Caco-2 [1]; 1 nM) [%] | cell viability (Caco-2 [1]; 10 nM) [%] | cell viability (Caco-2 [1]; 100 nM) [%] | cell viability (Caco-2 [1]; 1000 nM) [%] | cell viability (Caco-2 [1]; 10000 nM) [%] | cell viability (Calu-3 [2]; 1 nM) [%] | cell viability (Calu-3 [2]; 10 nM) [%] | cell viability (Calu-3 [2]; 100 nM) [%] | cell viability (Calu-3 [2]; 1000 nM) [%] | cell viability (Calu-3 [2]; 10000 nM) [%] | cell viability (HepG2 [3]; 1 nM) [%] | cell viability (HepG2 [3]; 10 nM) [%] | cell viability (HepG2 [3]; 100 nM) [%] | cell viability (HepG2 [3]; 1000 nM) [%] | cell viability (HepG2 [3]; 10000 nM) [%] | cell viability (U2OS [4]; 1 nM) [%] | cell viability (U2OS [4]; 10 nM) [%] | cell viability (U2OS [4]; 100 nM) [%] | cell viability (U2OS [4]; 1000 nM) [%] | cell viability (U2OS [4]; 10000 nM) [%] | cell viability (Vero E6 [5]; 1 nM) [%] | cell viability (Vero E6 [5]; 10 nM) [%] | cell viability (Vero E6 [5]; 100 nM) [%] | cell viability (Vero E6 [5]; 1000 nM) [%] | cell viability (Vero E6 [5]; 10000 nM) [%] | relative viability EC50 (Caco-2 [6]) [µM] | relative viability EC50 (Calu-3 [7]) [µM] | relative viability EC50 (HepG2 [8]) [µM] | relative viability EC50 (U2OS [9]) [µM] | relative viability EC50 (Vero E6 [10]) [µM] | drug sensitivity score (Caco-2 [11]) | drug sensitivity score (Calu-3 [12]) | drug sensitivity score (HepG2 [13]) | drug sensitivity score (U2OS [14]) | drug sensitivity score (Vero E6 [15])
Cc1cccc(Cc2c[nH]cn2)c1C [detomidine] | 94.2 | 94 | 97.5 | 86.7 | 96.1 | 99.7 | 93 | 102 | 103 | 102 | 99.4 | 101 | 104 | 113 | 113 | 101 | 98.2 | 103 | 96.5 | 101 | 91 | 101 | 90.5 | 102 | 106 | > 10 | > 10 | > 10 | > 10 | > 10 | 0 | 0 | 0 | 0 | 0
N#CC(c1ccc(Cl)cc1)c1c(Cl)cc(-n2ncc(=O)[nH]c2=O)cc1Cl (stereo not given) [diclazuril] | 100 | 93.7 | 107 | 86.3 | 110 | 98 | 84.7 | 94.2 | 92.9 | 107 | 101 | 102 | 121 | 110 | 91 | 98.6 | 98.5 | 95.7 | 94.8 | 100 | 99.4 | 100 | 92.2 | 95.8 | 109 | > 10 | > 10 | > 10 | > 10 | > 10 | 0 | 0 | 0 | 0 | 0
C1CCC(NC2CCCCC2)CC1 [dicyclohexylamine] | 98.7 | 104 | 94.6 | 106 | 94.1 | 96.6 | 99 | 87.8 | 97.8 | 98 | 99 | 104 | 97.5 | 111 | 104 | 99.2 | 99.5 | 99.4 | 104 | 97.7 | 99.1 | 96.3 | 97.3 | 100 | 97.5 | > 10 | > 10 | > 10 | > 10 | > 10 | 0 | 0 | 0 | 0 | 0
COc1ccc(-c2cc(=O)c3c(O)cc(O)cc3o2)cc1O [diosmetin] | 95.9 | 91.6 | 101 | 96.6 | 86.3 | 93.2 | 104 | 91.5 | 93.7 | 78.3 | 97.7 | 109 | 94.6 | 120 | 86.7 | 94.2 | 93.1 | 101 | 96.2 | 90.2 | 95.2 | 96.8 | 91 | 101 | 113 | > 10 | > 10 | > 10 | > 10 | > 10 | 0.4 | 1 | 0 | 0 | 0
CCCCCCCCCCCC1=C(O)C(=O)C=C(O)C1=O [embelin] | 98.2 | 97.2 | 98.5 | 104 | 92.2 | 106 | 98.6 | 110 | 96.2 | 104 | 95.9 | 94.4 | 98.9 | 98.6 | 102 | 107 | 95.1 | 101 | 94.7 | 95.3 | 92.1 | 94.3 | 97.8 | 105 | 97 | > 10 | > 10 | > 10 | > 10 | > 10 | 0 | 0 | 0 | 0 | 0
CC1(C)[C@@H](O)CC[C@]2(C)[C@H]3C(=O)C=C4[C@@H]5C[C@@](C)(C(=O)O)CC[C@]5(C)CC[C@@]4(C)[C@]3(C)CC[C@@H]12 [enoxolone] | 96.6 | 101 | 97 | 87.2 | 96.3 | 110 | 106 | 98.6 | 105 | 99.1 | 75.2 | 90.9 | 87 | 95.9 | 96 | 99.4 | 93.2 | 95.4 | 99.6 | 98.6 | 93.1 | 99.8 | 95.2 | 103 | 92.5 | > 10 | > 10 | > 10 | > 10 | > 10 | 0 | 0 | 0 | 0 | 0
CCOC(=O)c1cnc2c(cnn2CC)c1NN=C(C)C [etazolate] | 100 | 96.7 | 102 | 99.6 | 92.9 | 102 | 101 | 96.2 | 94.3 | 90.9 | 94.4 | 93 | 96.6 | 106 | 88.4 | 101 | 94.7 | 97.1 | 96.6 | 97.7 | 96.9 | 93.5 | 96.5 | 98.9 | 85.1 | > 10 | > 10 | > 10 | > 10 | > 10 | 0 | 0 | 0 | 0 | 0.3
